In general, MIC refers to the smallest concentration in the dilution series that meets the test's criterion for growth inhibition. A lower MIC goes with inhibition by little substance. Broadly, the solubility is the concentration that dissolves in the medium under given conditions. A high value points to a readily soluble substance. By IC50 is commonly meant the midpoint of a concentration-inhibition curve.

Results on six compounds are retold here after ChEMBL document CHEMBL3808292, “Synthesis and biological evaluation of 5,7-dihydroxyflavanone derivatives as antimicrobial agents” (Bioorg Med Chem Lett, 2016).

Values after ≈ are worked out from the molar mass of the structure shown.

Data set [1] deals with Escherichia coli. Kind of data set: Antimicrobial activity against Escherichia coli BW25113 after 24 hrs by spectrophotometric method. As to conditions: BW25113, 24 h. The data set is classed as functional.
Data set [2] concerns Pseudomonas aeruginosa. The experiment in a line: Antimicrobial activity against Pseudomonas aeruginosa PAO1 after 24 hrs by spectrophotometric method. It counts as functional. As to conditions: PAO1, 24 h.
For data set [3], the system named is Vibrio cholerae. Kind of data set: Antimicrobial activity against Vibrio cholerae 0395N1 after 24 hrs by spectrophotometric method. As to conditions: 0395N1, 24 h. The data set is classed as functional.
The test system of data set [4] is Bacillus subtilis. The experiment in a line: Antimicrobial activity against Bacillus subtilis 1012 after 24 hrs by spectrophotometric method. It counts as functional. As to conditions: Bacillus subtilis, 1012, 24 h.
The test system of data set [5] is Bacillus anthracis. Kind of data set: Antimicrobial activity against Bacillus anthracis delta sterne after 24 hrs by spectrophotometric method. It counts as functional.
Data set [6] relates to Bacillus cereus. Kind of data set: Antimicrobial activity against Bacillus cereus 10987 after 24 hrs by spectrophotometric method. It counts as functional. As to conditions: Bacillus cereus, 10987, 24 h.
Data set [7] concerns Staphylococcus aureus. Kind of data set: Antimicrobial activity against Staphylococcus aureus ATCC 33807 after 24 hrs by spectrophotometric method. As to conditions: ATCC 33807, 24 h. It counts as functional.
The test system of data set [8] is Saccharomyces cerevisiae. Kind of data set: Antifungal activity against Saccharomyces cerevisiae INVSc1 after 24 hrs by spectrophotometric method. The data set is classed as functional. As to conditions: INVSc1, 24 h.
Data set [9] is described as follows: Aqueous solubility of compound. It counts as physicochemical. As to conditions: buffer.
The subject of data set [10] is HepG2. The experiment in a line: Cytotoxicity against human HepG2 cells assessed as cell viability after 24 hrs by MTS assay. The data set is classed as cell-based. As to conditions: for Activity: human, hepg2, 24 h. In general terms: Tetrazolium assays rely on reduction of a dye to a coloured formazan, in cell work by metabolically active cells.
Data set [11] relates to HepG2. Kind of data set: (§1) Cytotoxicity against human HepG2 cells assessed as cell viability at 50 uM after 24 hrs by MTS assay. It counts as cell-based. As to conditions: hepg2, 24 h, 50 µM.
The nature of data set [12]: Aqueous solubility of compound at 50 uM. It counts as physicochemical. As to conditions: buffer.
Data set [13] in a line: Cytotoxicity against human HepG2 cells assessed as cell viability at 50 uM after 6 hrs by MTS assay. The data set is classed as cell-based. As to conditions: read-out: Activity.
Data set [14] is described as follows: as §1. It counts as cell-based. As to conditions: HepG2 cells, read-out: Activity.

In the case of `O=C1CC(c2ccc(Cl)c(F)c2)Oc2cc(O)cc(O)c21` (centres undefined), the MIC in data set [1] is 250 µM (≈ 77.2 µg/mL); in [2], 250 µM (≈ 77.2 µg/mL); in data set [3], 125 µM (≈ 38.6 µg/mL); in data set [4], 125 µM (≈ 38.6 µg/mL); in [5], 62.5 µM (≈ 19.3 µg/mL); in data set [6], 93.8 µM (≈ 28.9 µg/mL). Further, the MIC was 125 µM (≈ 38.6 µg/mL) in data set [7] and 250 µM (≈ 77.2 µg/mL) in [8]. The solubility is 500 µM (≈ 154 µg/mL) in [9] and “soluble” in data set [12]. In addition, the Activity entry in [10] is reported as “Dose-dependent effect”; in data set [11] it was “Non-toxic”.

As for `O=C1CC(c2ccc(F)cc2)Oc2cc(O)cc(O)c21` (centres undefined), the MIC in [1] was determined as 500 µM (≈ 137 µg/mL); in [2], 500 µM (≈ 137 µg/mL); in data set [3] it was 125 µM (≈ 34.3 µg/mL); in [4], 125 µM (≈ 34.3 µg/mL); in data set [5] it was 125 µM (≈ 34.3 µg/mL); in data set [6], 125 µM (≈ 34.3 µg/mL). Besides, the MIC in data set [7] worked out at 125 µM (≈ 34.3 µg/mL); in data set [8] it was 250 µM (≈ 68.6 µg/mL). Besides, the solubility in data set [9] was 1000 µM (≈ 274 µg/mL); in data set [12] it was “soluble”. For the same compound, the Activity result in [10] is on record as “Dose-dependent effect”; in [11], “Non-toxic”.

Turning to `O=C1CC(c2ccc(F)c(F)c2)Oc2cc(O)cc(O)c21` (centres undefined), the MIC in data set [1] turned out to be 1000 µM (≈ 292 µg/mL); in data set [2], 1000 µM (≈ 292 µg/mL); in data set [3] it was 125 µM (≈ 36.5 µg/mL); in data set [4], 125 µM (≈ 36.5 µg/mL); in data set [5], 62.5 µM (≈ 18.3 µg/mL); in data set [6] it was 125 µM (≈ 36.5 µg/mL). Besides, the MIC in [7] was 125 µM (≈ 36.5 µg/mL); in data set [8], 1000 µM (≈ 292 µg/mL). The solubility is 1000 µM (≈ 292 µg/mL) in data set [9] and “soluble” in data set [12]. Besides, the Activity entry in data set [10] is listed as “Dose-dependent effect”; in [11] it was “Non-toxic”.

As for `O=C1CC(c2ccc(Cl)c(Cl)c2)Oc2cc(O)cc(O)c21` (centres undefined), the minimal inhibitory concentration (MIC) in [1] stood at 125 µM (≈ 40.6 µg/mL); in data set [2], 125 µM (≈ 40.6 µg/mL); in [3], 125 µM (≈ 40.6 µg/mL); in data set [4], 62.5 µM (≈ 20.3 µg/mL); in data set [5], 31.2 µM (≈ 10.2 µg/mL); in [6], 31.2 µM (≈ 10.2 µg/mL). The values for the MIC in data set [7] and in data set [8] were 62.5 µM (≈ 20.3 µg/mL) and 31.2 µM (≈ 10.2 µg/mL), respectively. In addition, the solubility in data set [9] is 63 µM (≈ 20.5 µg/mL); in data set [12], “soluble”. In addition, the Activity entry in data set [10] is recorded as “Dose-dependent effect”. Also, the viability at 6 h, 50 µM in data set [13] came to 17%. The viability at 24 h, 50 µM in [14] amounted to 57%.

As to `O=C1CC(c2cc(F)c(F)c(F)c2)Oc2cc(O)cc(O)c21` (centres undefined), the minimal inhibitory concentration (MIC) in data set [1], in data set [2], in [3], in data set [4], in data set [5] and in data set [6] was 1000 µM (≈ 310 µg/mL) throughout. Further, the MIC in [7] came to 1000 µM (≈ 310 µg/mL); in data set [8] it was 125 µM (≈ 38.8 µg/mL). Moreover, the solubility in data set [9] is 500 µM (≈ 155 µg/mL); in data set [12], “soluble”. In addition, in data set [10] (Homo sapiens, HepG2, 24 h), the IC50 stood at 95 µM. The Activity result in [10] is recorded as “Dose-dependent effect”; in data set [11] it was “Non-toxic”.

`O=C1CC(c2cc(O)c(O)c(O)c2)Oc2cc(O)cc(O)c21` (centres undefined): the minimal inhibitory concentration (MIC) in data set [1], in data set [2], in data set [3], in [4], in data set [5] and in data set [6] was 1000 µM (≈ 304 µg/mL) in each case. The MIC in data set [7] and in data set [8] was 1000 µM (≈ 304 µg/mL) throughout. In addition, the solubility was 63 µM (≈ 19.2 µg/mL) in data set [9] and “soluble” in data set [12]. In addition, the Activity result is “Dose-dependent effect” in data set [10] and “Non-toxic” in data set [11].
